Key:
A549 [1] = assay: Growth inhibition of human A549 cells; format: functional
TK-10 = assay: Growth inhibition of human TK10 cells; format: functional
K562 = assay: Growth inhibition of human K562 cells; format: functional
HL-60(TB) = assay: Growth inhibition of human HL-60(TB) cells; format: functional
MCF7 [2] = assay: Cell cycle arrest in human MCF7 cells assessed as accumulation at G0/G1 phase at 4 uM after 24 hrs by propidium iodide staining based flow cytometry (reference value: 60.75%); format: functional
KM12 = assay: Growth inhibition of human KM12 cells; format: functional
NCI-H522 = assay: Growth inhibition of human NCI-H522 cells; format: functional
U-251 = assay: Growth inhibition of human U251 cells; format: functional
MCF7 [3] = assay: Cell cycle arrest in human MCF7 cells assessed as accumulation at G1 phase at 4 uM after 24 hrs by propidium iodide staining based flow cytometry (reference value: 57.98%); format: functional
MCF7 [4] = assay: Growth inhibition of human MCF7 cells; format: functional
SNB-19 = assay: Growth inhibition of human SNB19 cells; format: functional
MDA-MB-435 = assay: Growth inhibition of human MDA-MB-435 cells; format: functional
[5] = Growth inhibition of human HCC2998 cells; format: functional; details: HCC 2998
[6] = Growth inhibition of human UACC257 cells; format: functional; details: UACC-257
SK-MEL-5 = assay: Growth inhibition of human SK-MEL-5 cells; format: functional
CCRF-CEM = assay: Growth inhibition of human CCRF-CEM cells; format: functional
T47D = assay: Growth inhibition of human T47D cells; format: functional
HCT-116 = assay: Growth inhibition of human HCT116 cells; format: functional
[7] = Growth inhibition of human HCT15 cells; format: functional; details: HCT-15
A2780 = assay: Growth inhibition of human A2780 cells; format: functional
HOP-62 = assay: Growth inhibition of human HOP62 cells; format: functional
CAKI-1 = assay: Growth inhibition of human CAKI-1 cells; format: functional
SW-620 = assay: Growth inhibition of human SW620 cells; format: functional
KB = assay: Growth inhibition of human KB cells; format: functional
SiHa = assay: Growth inhibition of human SiHa cells; format: functional
[8] = Growth inhibition of human UACC62 cells; format: functional; details: UACC-62
[9] = Growth inhibition of human MOLT4 cells; format: functional; details: MOLT-4
RPMI-8226 = assay: Growth inhibition of human RPMI8226 cells; format: functional
MCF7 [10] = assay: Cell cycle arrest in human MCF7 cells assessed as accumulation at G2/M phase at 4 uM after 24 hrs by propidium iodide staining based flow cytometry (reference value: 24.95%); format: functional
SN12C = assay: Growth inhibition of human SN12C cells; format: functional
[11] = Growth inhibition of human Gurav cells; format: functional
[12] = Growth inhibition of human EKVX cells; format: functional
M14 = assay: Growth inhibition of human M14 cells; format: functional
MCF7 [13] = assay: Cell cycle arrest in human MCF7 cells assessed as accumulation at S phase at 4 uM after 24 hrs by propidium iodide staining based flow cytometry (reference value: 14.30%); format: functional
[14] = Growth inhibition of human HOP92 cells; format: functional; details: HOP-92
NCI-H23 = assay: Growth inhibition of human NCI-H23 cells; format: functional
MCF7 [15] = assay: Cell cycle arrest in human MCF7 cells assessed as accumulation at G0 phase at 4 uM after 24 hrs by propidium iodide staining based flow cytometry (reference value: 2.77%); format: functional
IGROV-1 = assay: Growth inhibition of human IGROV1 cells; format: functional
[16] = Growth inhibition of human MDA-MB cells; format: functional
COLO 205 = assay: Growth inhibition of human COLO205 cells; format: functional
[17] = Growth inhibition of human OVCAR5 cells; format: functional; details: OVCAR-5
[18] = Growth inhibition of human UO31 cells; format: functional; details: UO-31
SF-268 = assay: Growth inhibition of human SF268 cells; format: functional
SR = assay: Growth inhibition of human SR cells; format: functional
Malme-3M = assay: Growth inhibition of human MALME-3M cells; format: functional
HT-29 = assay: Growth inhibition of human HT-29 cells; format: functional
NCI-H226 = assay: Growth inhibition of human NCI-H226 cells; format: functional
Calf thymus DNA = assay: Binding affinity to calf thymus DNA assessed as change in melting temperature at compound to DNA ratio of 1:5 after 18 hrs by thermal denaturation analysis; format: nucleic-acid assay; details: Bos taurus
[19] = Growth inhibition of human RXF393 cells; format: functional; details: RXF 393
[20] = Growth inhibition of human SF539 cells; format: functional; details: SF-539
[21] = Growth inhibition of human BT549 cells; format: functional; details: BT-549
SK-OV-3 = assay: Growth inhibition of human SKOV3 cells; format: functional
DU-145 = assay: Growth inhibition of human DU145 cells; format: functional
A498 = assay: Growth inhibition of human A498 cells; format: functional
[22] = Growth inhibition of human OVCAR3 cells; format: functional; details: OVCAR-3
SNB-75 = assay: Growth inhibition of human SNB75 cells; format: functional
[23] = Growth inhibition of human LOXIMVI cells; format: functional; details: LOX IMVI
NCI-H322M = assay: Growth inhibition of human NCI-H322M cells; format: functional
A549 [24] = assay: Growth inhibition of human A549/ATCC cells; format: functional
SK-MEL-2 = assay: Growth inhibition of human SK-MEL-2 cells; format: functional
MDA-MB-468 = assay: Growth inhibition of human MDA-MB-468 cells; format: functional
ZR-75-1 = assay: Growth inhibition of human ZR-75-1 cells; format: functional
[25] = Growth inhibition of human OVCAR8 cells; format: functional; details: OVCAR-8
NCI-H460 = assay: Growth inhibition of human NCI-H460 cells; format: functional
786-0 = assay: Growth inhibition of human 786-0 cells; format: functional
[26] = Growth inhibition of human Hs 578T cells; format: functional
[27] = Growth inhibition of human OVCAR4 cells; format: functional; details: OVCAR-4
ACHN = assay: Growth inhibition of human ACHN cells; format: functional
SK-MEL-28 = assay: Growth inhibition of human SK-MEL-28 cells; format: functional
PC-3 = assay: Growth inhibition of human PC3 cells; format: functional

COc1cc2c(cc1OCCCCCn1c3ccccc3c3ccccc31)N=C[C@@H]1CCCN1C2=O
GI50 (A549 [1]): 1420 nM | GI50 (TK-10): 2250 nM | GI50 (K562): 2600 nM | GI50 (HL-60(TB)): 1720 nM | Activity (MCF7 [2]): 71.69% | GI50 (KM12): 1960 nM | GI50 (NCI-H522): 1650 nM | GI50 (U-251): 1590 nM | Activity (MCF7 [3]): 68.24% | GI50 (MCF7 [4]): 1640 nM | GI50 (SNB-19): 2050 nM | GI50 (MDA-MB-435): 1730 nM | GI50 [5]: 1710 nM | GI50 [6]: 2290 nM | GI50 (SK-MEL-5): 1730 nM | GI50 (CCRF-CEM): 1970 nM | GI50 (T47D): 2790 nM | GI50 (HCT-116): 1650 nM | GI50 [7]: 1670 nM | GI50 (A2780): 1320 nM | GI50 (HOP-62): 1800 nM | GI50 (CAKI-1): 1930 nM | GI50 (SW-620): 1850 nM | GI50 (KB): 1800 nM | GI50 (SiHa): 1680 nM | GI50 [8]: 1860 nM | GI50 [9]: 2150 nM | GI50 (RPMI-8226): 1720 nM | Activity (MCF7 [10]): 15.38% | GI50 (SN12C): 1940 nM | GI50 [11]: 1610 nM | GI50 [12]: 5.27 µM | GI50 (M14): 2100 nM | Activity (MCF7 [13]): 13.03% | GI50 [14]: 1310 nM | GI50 (NCI-H23): 2690 nM | Activity (MCF7 [15]): 3.45% | GI50 (IGROV-1): 2080 nM | GI50 [16]: 2140 nM | GI50 (COLO 205): 1640 nM | GI50 [17]: 2420 nM | GI50 [18]: 1520 nM | GI50 (SF-268): 1910 nM | GI50 (SR): 1540 nM | GI50 (Malme-3M): 2200 nM | GI50 (HT-29): 2080 nM | GI50 (NCI-H226): 2490 nM | ΔTm (Calf thymus DNA): 4.9 °C | GI50 [19]: 4.34 µM | GI50 [20]: 1850 nM | GI50 [21]: 2030 nM | GI50 (SK-OV-3): 4.57 µM | GI50 (DU-145): 2230 nM | GI50 (A498): 1740 nM | GI50 [22]: 1880 nM | GI50 (SNB-75): 1050 nM | GI50 [23]: 2080 nM | GI50 (NCI-H322M): 3.83 µM | GI50 (A549 [24]): 1570 nM | GI50 (SK-MEL-2): 1670 nM | GI50 (MDA-MB-468): 2260 nM | GI50 (ZR-75-1): 1760 nM | GI50 [25]: 2550 nM | GI50 (NCI-H460): 1960 nM | GI50 (786-0): 1730 nM | GI50 [26]: 1970 nM | GI50 [27]: 3.09 µM | GI50 (ACHN): 1770 nM | GI50 (SK-MEL-28): 1800 nM | GI50 (PC-3): 2300 nM

From ChEMBL document CHEMBL3217457, “Carbazolepyrrolo[2,1-c][1,4]benzodiazepine conjugates: design, synthesis, and biological evaluation” (Medchemcomm, 2011)
